Test system: cerebellar granule neurons (CGNs)
Assay: MTT cell viability, glutamate-induced excitotoxicity in CGNs
Type: cell-based, rat
Settings: MN‐08 1–50 µM for 2 h, then 100 μM glutamate 24 h
Description: Excessive glutamate‐induced excitotoxicity might cause dysfunctions of cellular pathways, subsequently resulting in synaptic dysfunctions and neuronal loss. To evaluate the neuroprotective effects of MN‐08 against excitotoxicity, cerebellar granule neurons (CGNs) were treated with MN‐08 at the concentrations from 1 to 50 µM or memantine from 1 to 10 μM for 2 h, and then exposed to 100 μM glutamate for 24 h. […] Similarly, in APP/PS1 mice, MN‐08 prevented neuronal loss in the hippocampus by upregulating the expression ratio of Bcl‐2/Bax and downregulating the expression ratio of cleaved Caspase‐3 to Caspase‐3 (Figure S6).
CGNs were prepared from the 8-day-old Sprague–Dawley rats as described in our previous publication (Li et al., 2005). Briefly, animals were anesthetized and sacrificed, and their cerebella were collected. […]
Neurotoxicity was assessed using the tetrazolium salt 3-(4,5-dimethylthiazol-2-yl)-2,5- diphenyltetrazolium bromide dye (MTT) assay as previous publication (Luo et al., 2010). […] Cell viability was evaluated by observing colorimetric changes using a CLARIOstar plus Microplate Reader (BMG Labtech, Ortenberg, Germany) at a test wavelength of 570 nm with 655 nm as a reference wavelength. Data were expressed as a percentage of control cultures.

## CCC12CC3CC(N)(C1)CC(CO[N+](=O)[O-])(C3)C2 (stereo not shown) [MN‐08]
  protection against glutamate‐induced excitotoxicity (MTT): concentration‐dependently protect

Source: publication PMC8208785, “Therapeutic efficacy of novel memantine nitrate MN‐08 in animal models of Alzheimer’s disease” (Aging Cell, 2021)
